According to paper PMC11531508 (Scientific Reports, 2024):

target: AChE (Electrophorus electricus) (Electrophorus electricus, UniProt O42275); assay: In vitro acetylcholinesterase inhibition assay; assay type: biochemical
Sequence (O42275 24-633): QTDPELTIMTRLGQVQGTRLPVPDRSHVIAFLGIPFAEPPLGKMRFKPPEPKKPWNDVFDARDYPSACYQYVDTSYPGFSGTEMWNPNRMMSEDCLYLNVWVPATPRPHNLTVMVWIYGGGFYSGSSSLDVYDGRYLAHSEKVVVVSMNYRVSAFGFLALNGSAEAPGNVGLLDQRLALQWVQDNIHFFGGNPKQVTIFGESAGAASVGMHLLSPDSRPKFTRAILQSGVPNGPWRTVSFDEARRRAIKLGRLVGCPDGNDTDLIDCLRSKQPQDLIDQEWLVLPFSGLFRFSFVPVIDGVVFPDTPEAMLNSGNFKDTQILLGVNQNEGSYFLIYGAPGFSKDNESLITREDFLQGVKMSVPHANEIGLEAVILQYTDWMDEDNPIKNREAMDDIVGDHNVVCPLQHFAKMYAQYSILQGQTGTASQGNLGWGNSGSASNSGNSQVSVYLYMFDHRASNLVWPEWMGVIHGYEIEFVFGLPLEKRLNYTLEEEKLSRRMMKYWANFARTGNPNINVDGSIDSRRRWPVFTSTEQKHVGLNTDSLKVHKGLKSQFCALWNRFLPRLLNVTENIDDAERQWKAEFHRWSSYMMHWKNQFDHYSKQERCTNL

SMILES	IC50 [µM]
O=c1cc(OCCCCOc2ccc(-c3nc4ccccc4s3)cc2)c2ccccc2o1 [Compound 3a, 4-(4-(4-(Benzo[d]thiazol-2-yl)phenoxy)butoxy)-2H-chromen-2-one]	4.23 ± 0.11
COc1cc(-c2nc3ccccc3s2)ccc1OCCCCOc1cc(=O)oc2ccccc12 [Compound 3b, 4-(4-(4-(Benzo[d]thiazol-2-yl)-2-methoxyphenoxy)butoxy)-2H-chromen-2-one]	16.5 ± 0.23
CCOc1cc(-c2nc3ccccc3s2)ccc1OCCCCOc1cc(=O)oc2ccccc12 [Compound 3c, 4-(4-(4-(Benzo[d]thiazol-2-yl)-2-ethoxyphenoxy)butoxy)-2H-chromen-2-one]	15.8 ± 0.18
COc1cc(-c2nc3ccccc3s2)cc(OC)c1OCCCCOc1cc(=O)oc2ccccc12 [Compound 3d, 4-(4-(4-(Benzo[d]thiazol-2-yl)-2,6-dimethoxyphenoxy)butoxy)-2H-chromen-2-one]	6.8 ± 0.1
COc1cc(OCCCCOc2cc(=O)oc3ccccc23)ccc1-c1nc2ccccc2s1 [Compound 3e, 4-(4-(4-(Benzo[d]thiazol-2-yl)-3-methoxyphenoxy)butoxy)-2H-chromen-2-one]	18.7 ± 0.28
O=c1cc(OCCCCCOc2ccc(-c3nc4ccccc4s3)cc2)c2ccccc2o1 [Compound 3f, 4-((5-(4-(Benzo[d]thiazol-2-yl)phenoxy)pentyl)oxy)-2H-chromen-2-one]	8.5 ± 0.18
COc1cc(-c2nc3ccccc3s2)ccc1OCCCCCOc1cc(=O)oc2ccccc12 [Compound 3g, 4-((5-(4-(Benzo[d]thiazol-2-yl)-2-methoxyphenoxy)pentyl)oxy)-2H-chromen-2-one]	6.8 ± 0.13
CCOc1cc(-c2nc3ccccc3s2)ccc1OCCCCCOc1cc(=O)oc2ccccc12 [Compound 3h, 4-((5-(4-(Benzo[d]thiazol-2-yl)-2-ethoxyphenoxy)pentyl)oxy)-2H-chromen-2-one]	6.5 ± 0.12
COc1cc(-c2nc3ccccc3s2)cc(OC)c1OCCCCCOc1cc(=O)oc2ccccc12 [Compound 3i, 4-((5-(4-(Benzo[d]thiazol-2-yl)-2,6-dimethoxyphenoxy)pentyl)oxy)-2H-chromen-2-one]	2.7 ± 0.1
COc1cc(OCCCCCOc2cc(=O)oc3ccccc23)ccc1-c1nc2ccccc2s1 [Compound 3j, 4-((5-(4-(Benzo[d]thiazol-2-yl)-3-methoxyphenoxy)pentyl)oxy)-2H-chromen-2-one]	7.5 ± 0.16
O=c1cc(OCCCCCCOc2ccc(-c3nc4ccccc4s3)cc2)c2ccccc2o1 [Compound 3k, 4-((6-(4-(Benzo[d]thiazol-2-yl)phenoxy)hexyl)oxy)-2H-chromen-2-one]	35.8 ± 0.3
COc1cc(-c2nc3ccccc3s2)ccc1OCCCCCCOc1cc(=O)oc2ccccc12 [Compound 3l, 4-((6-(4-(Benzo[d]thiazol-2-yl)-2-methoxyphenoxy)hexyl)oxy)-2H-chromen-2-one]	33.2 ± 0.28
CCOc1cc(-c2nc3ccccc3s2)ccc1OCCCCCCOc1cc(=O)oc2ccccc12 [Compound 3m, 4-((6-(4-(Benzo[d]thiazol-2-yl)-2-ethoxyphenoxy)hexyl)oxy)-2H-chromen-2-one]	27.9 ± 0.2
COc1cc(-c2nc3ccccc3s2)cc(OC)c1OCCCCCCOc1cc(=O)oc2ccccc12 [Compound 3n, 4-((6-(4-(Benzo[d]thiazol-2-yl)-2,6-dimethoxyphenoxy)hexyl)oxy)-2H-chromen-2-one]	12.1 ± 0.19
COc1cc(OCCCCCCOc2cc(=O)oc3ccccc23)ccc1-c1nc2ccccc2s1 [Compound 3o, 4-((6-(4-(Benzo[d]thiazol-2-yl)-3-methoxyphenoxy)hexyl)oxy)-2H-chromen-2-one]	30.7 ± 0.23
